Calls of active or inactive are those of the source.
Assays:
[1] = molecular target: T1, RNA-binding protein pos-1 (Caenorhabditis elegans, UniProt G5EF15); experiment: disruptors of C. elegans POS-1 RNA interaction – biochemical, fluorescence polarization, dose response (AID 1964);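 further: purified POS-1 fused to maltose binding protein made in E. coli; potency of compounds blocking POS-1 binding to fluorescent RNA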
T1 sequence (G5EF15 whole entry): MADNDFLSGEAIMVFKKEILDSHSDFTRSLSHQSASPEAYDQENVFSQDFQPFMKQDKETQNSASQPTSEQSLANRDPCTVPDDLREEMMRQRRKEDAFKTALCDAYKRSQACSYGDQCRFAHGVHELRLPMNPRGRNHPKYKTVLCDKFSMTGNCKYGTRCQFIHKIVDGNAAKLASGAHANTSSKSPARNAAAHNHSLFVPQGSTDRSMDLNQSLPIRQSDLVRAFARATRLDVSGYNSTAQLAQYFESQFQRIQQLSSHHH

[2] = molecular target: T2, Zinc finger protein mex-5 (Caenorhabditis elegans, UniProt Q9XUB2); experiment: potency of MEX-5 RNA-binding blockers – biochemical, C. elegans, fluorescence polarization, dose response (AID 1960)
T2 sequence (Q9XUB2 whole entry): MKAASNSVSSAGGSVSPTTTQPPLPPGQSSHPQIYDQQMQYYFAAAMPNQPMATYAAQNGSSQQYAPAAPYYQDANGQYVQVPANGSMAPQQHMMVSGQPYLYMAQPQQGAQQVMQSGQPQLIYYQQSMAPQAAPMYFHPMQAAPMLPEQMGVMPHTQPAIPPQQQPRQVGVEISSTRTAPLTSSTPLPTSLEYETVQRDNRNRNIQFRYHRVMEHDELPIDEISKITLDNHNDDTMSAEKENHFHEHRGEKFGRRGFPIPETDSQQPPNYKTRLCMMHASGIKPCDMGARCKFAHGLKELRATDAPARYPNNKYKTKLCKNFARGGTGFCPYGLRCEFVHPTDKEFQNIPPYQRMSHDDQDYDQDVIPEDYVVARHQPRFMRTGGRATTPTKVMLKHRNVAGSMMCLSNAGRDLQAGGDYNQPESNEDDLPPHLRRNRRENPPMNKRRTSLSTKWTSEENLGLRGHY

[3] = molecular target: T3, Sentrin-specific protease 1 (Homo sapiens, UniProt Q9P0U3); experiment: SENP1 catalytic domain blockers, concentration series – biochemical, kinetic FRET, dose response (AID 651697); type: functional; settings: read-out: IC50_Mean
T3 sequence (Q9P0U3 whole entry): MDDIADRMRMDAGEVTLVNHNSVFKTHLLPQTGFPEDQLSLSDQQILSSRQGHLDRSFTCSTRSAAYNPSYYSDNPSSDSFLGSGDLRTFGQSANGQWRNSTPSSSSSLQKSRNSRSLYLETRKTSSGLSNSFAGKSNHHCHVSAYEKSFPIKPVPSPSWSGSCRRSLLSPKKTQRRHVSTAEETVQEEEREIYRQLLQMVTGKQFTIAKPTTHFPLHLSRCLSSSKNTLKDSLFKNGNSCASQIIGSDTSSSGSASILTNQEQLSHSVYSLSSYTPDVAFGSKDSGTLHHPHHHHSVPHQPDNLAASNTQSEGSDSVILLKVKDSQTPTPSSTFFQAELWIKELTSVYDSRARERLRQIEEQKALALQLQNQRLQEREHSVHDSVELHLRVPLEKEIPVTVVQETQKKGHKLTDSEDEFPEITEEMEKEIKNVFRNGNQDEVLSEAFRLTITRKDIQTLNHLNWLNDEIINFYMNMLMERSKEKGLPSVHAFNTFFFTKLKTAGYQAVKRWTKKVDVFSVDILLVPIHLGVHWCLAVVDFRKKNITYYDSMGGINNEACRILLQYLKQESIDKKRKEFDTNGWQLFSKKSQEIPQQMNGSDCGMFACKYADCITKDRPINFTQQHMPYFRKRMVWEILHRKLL

[4] = molecular target: T3, Sentrin-specific protease 1; experiment: Dose response confirmation of small molecule inhibitors of the catalytic domain of the SUMO protease, SENP1 in a FRET assay.; type: functional; settings: read-out: IC50_Mean
[5] = molecular target: T4, Rac GTPase-activating protein 1 (Homo sapiens, UniProt Q9H0H5); experiment: blockers of MgcRacGAP-driven Rac1 GTP hydrolysis – biochemical, ADP Hunter fluorescence, primary and confirmatory, confirmation (AID 624330); type: functional
T4 sequence (Q9H0H5 whole entry): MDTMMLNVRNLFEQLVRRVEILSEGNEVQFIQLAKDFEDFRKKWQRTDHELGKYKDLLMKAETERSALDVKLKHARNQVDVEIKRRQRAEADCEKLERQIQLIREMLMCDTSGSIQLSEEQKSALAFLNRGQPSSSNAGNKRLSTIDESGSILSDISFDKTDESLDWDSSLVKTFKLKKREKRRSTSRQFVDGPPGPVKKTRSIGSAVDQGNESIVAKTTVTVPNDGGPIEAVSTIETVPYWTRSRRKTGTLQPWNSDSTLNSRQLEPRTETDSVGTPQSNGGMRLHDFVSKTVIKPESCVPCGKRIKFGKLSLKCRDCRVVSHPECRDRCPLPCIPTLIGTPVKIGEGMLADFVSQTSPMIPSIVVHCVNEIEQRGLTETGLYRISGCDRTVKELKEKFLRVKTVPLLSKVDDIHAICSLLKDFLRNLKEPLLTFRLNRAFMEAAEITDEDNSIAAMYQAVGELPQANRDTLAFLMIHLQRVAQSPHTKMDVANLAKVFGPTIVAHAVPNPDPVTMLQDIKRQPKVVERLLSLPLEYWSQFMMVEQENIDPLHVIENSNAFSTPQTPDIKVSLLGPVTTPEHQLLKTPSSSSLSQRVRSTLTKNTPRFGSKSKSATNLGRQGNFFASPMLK

[6] = Luminescence Cell-Based Dose Retest to Confirm Inhibitors of Cancer Stem Cells. [Related pubchem assays (depositor defined):AID2717, AID2721]; type: functional; settings: Homo sapiens
[7] = molecular target: T5, Heat shock factor protein 1 (Mus musculus, UniProt P38532); experiment: enhancement of HSF1-driven luciferase signal – cell-based, NIH3T3, luminescence, dose retest, confirmation (AID 435004); type: functional;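 further: stress induced by proteasome inhibitor MG132 added 30 min after compound; luciferase reporter driven by HSF1 response element in NIH3T3 cells; actives raise luminescence as potentiators of the MG132 stress response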
T5 sequence (P38532 whole entry): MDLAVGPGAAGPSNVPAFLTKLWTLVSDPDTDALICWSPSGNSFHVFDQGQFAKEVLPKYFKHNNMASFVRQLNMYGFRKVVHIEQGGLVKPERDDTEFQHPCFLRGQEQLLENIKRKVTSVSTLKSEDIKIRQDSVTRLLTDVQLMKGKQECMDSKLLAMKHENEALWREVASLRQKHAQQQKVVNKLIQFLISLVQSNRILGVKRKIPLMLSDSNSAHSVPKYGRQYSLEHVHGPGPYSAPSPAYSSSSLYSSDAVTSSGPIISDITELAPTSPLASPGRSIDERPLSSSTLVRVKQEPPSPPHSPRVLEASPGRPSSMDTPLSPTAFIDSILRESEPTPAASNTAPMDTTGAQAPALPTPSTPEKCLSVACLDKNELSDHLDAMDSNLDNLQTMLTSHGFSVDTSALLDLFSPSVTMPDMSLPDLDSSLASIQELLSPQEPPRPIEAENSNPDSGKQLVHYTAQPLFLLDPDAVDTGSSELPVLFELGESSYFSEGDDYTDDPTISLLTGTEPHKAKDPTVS

Vero = experiment: cells; type: functional; settings: Chlorocebus sabaeus
[8] = molecular target: Hepatocyte nuclear factor 4-alpha (Homo sapiens, UniProt P41235); type: functional, cell-based;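 further: biochemical luminescence-based dose-response counterscreen measuring inhibition of HNF4 dimerization, run alongside a screen for blockers of ABHD5–perilipin-5 interaction; split luciferase complementation of HNF4 fusion proteins in cell lysate measuring dimerization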
Chain of Hepatocyte nuclear factor 4-alpha (P41235 whole entry, the tested form may be a part): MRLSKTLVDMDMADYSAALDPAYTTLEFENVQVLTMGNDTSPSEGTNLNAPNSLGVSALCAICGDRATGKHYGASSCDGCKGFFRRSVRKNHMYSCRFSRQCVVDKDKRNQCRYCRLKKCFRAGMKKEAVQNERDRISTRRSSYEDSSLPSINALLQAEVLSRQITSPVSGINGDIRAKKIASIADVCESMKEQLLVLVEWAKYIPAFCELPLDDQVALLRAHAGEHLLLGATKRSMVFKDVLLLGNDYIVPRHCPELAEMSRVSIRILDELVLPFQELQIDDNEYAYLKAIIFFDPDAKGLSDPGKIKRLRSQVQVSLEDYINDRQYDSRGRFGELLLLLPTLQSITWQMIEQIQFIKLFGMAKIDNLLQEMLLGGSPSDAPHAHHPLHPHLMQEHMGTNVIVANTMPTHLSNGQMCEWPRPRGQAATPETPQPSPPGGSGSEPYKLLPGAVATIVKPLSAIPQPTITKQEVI

[9] = molecular target: T6, Acyl-homoserine lactone acylase PvdQ (Pseudomonas aeruginosa (strain LESB58), UniProt Q9I194); experiment: PvdQ acylase enzyme activity blockers – biochemical, fluorescence, plate reader and imaging, cherry-picks, dose response (AID 493231)
T6 sequence (Q9I194 whole entry): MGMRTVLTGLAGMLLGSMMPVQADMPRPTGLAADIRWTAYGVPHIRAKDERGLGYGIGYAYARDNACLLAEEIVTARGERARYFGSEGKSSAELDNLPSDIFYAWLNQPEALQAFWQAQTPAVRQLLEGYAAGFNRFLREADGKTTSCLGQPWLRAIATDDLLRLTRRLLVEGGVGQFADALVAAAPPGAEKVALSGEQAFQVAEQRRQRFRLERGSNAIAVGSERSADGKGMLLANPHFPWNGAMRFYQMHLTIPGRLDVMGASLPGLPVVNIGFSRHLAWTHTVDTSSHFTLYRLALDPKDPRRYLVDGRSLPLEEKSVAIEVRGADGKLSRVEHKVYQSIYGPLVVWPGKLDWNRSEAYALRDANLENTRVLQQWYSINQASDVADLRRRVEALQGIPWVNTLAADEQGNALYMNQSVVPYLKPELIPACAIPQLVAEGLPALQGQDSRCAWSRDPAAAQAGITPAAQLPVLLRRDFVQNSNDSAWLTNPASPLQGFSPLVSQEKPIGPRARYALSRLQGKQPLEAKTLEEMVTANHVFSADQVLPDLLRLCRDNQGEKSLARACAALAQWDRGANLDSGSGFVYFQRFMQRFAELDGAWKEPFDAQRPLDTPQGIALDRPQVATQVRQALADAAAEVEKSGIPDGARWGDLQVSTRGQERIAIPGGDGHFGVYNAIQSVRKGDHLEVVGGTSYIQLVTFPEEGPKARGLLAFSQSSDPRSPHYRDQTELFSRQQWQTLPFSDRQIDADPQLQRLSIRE

[10] = molecular target: Peroxisome proliferator-activated receptor gamma/Nuclear receptor coactivator 1 (Homo sapiens, UniProt P37231); experiment: (§1) TR-FRET dose response biochemical High Throughput Screening assay for agonists of the steroid receptor coactivator 1 (SRC-1) recruitment by the peroxisome proliferator-activated receptor gamma (PPAR gamma): non-selective agonists. [Related pubchem assays (depositor defined):AID1300, AID1808, AID504735, AID631]; type: protein assay
[11] = molecular target: Peroxisome proliferator-activated receptor gamma/Nuclear receptor coactivator 3 (Homo sapiens, UniProt P37231); experiment: as §1, with “3 (SRC-3)” for “1 (SRC-1)”, “assays: 1301 (Confirmation screen.), 1048 (Primary screen.)]” for “assays (depositor defined):AID1300, AID1808, AID504735, AID631]”; type: functional
Chain of Peroxisome proliferator-activated receptor gamma/Nuclear receptor coactivator 3 (P37231 whole entry): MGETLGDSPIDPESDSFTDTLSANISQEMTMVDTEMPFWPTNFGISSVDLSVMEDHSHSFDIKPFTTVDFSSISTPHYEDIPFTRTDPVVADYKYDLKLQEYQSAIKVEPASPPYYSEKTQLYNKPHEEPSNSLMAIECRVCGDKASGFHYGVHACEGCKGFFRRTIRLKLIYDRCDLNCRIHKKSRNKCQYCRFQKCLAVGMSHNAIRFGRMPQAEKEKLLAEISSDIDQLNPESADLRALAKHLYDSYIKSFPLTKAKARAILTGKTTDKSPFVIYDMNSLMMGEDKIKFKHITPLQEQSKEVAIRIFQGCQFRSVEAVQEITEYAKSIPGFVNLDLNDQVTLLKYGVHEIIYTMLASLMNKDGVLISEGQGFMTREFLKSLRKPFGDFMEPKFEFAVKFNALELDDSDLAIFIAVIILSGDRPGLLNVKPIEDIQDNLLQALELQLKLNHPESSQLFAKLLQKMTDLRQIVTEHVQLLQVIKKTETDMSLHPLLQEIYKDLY
Chain of Peroxisome proliferator-activated receptor gamma/Nuclear receptor coactivator 3 (Q9Y6Q9 whole entry, further chain): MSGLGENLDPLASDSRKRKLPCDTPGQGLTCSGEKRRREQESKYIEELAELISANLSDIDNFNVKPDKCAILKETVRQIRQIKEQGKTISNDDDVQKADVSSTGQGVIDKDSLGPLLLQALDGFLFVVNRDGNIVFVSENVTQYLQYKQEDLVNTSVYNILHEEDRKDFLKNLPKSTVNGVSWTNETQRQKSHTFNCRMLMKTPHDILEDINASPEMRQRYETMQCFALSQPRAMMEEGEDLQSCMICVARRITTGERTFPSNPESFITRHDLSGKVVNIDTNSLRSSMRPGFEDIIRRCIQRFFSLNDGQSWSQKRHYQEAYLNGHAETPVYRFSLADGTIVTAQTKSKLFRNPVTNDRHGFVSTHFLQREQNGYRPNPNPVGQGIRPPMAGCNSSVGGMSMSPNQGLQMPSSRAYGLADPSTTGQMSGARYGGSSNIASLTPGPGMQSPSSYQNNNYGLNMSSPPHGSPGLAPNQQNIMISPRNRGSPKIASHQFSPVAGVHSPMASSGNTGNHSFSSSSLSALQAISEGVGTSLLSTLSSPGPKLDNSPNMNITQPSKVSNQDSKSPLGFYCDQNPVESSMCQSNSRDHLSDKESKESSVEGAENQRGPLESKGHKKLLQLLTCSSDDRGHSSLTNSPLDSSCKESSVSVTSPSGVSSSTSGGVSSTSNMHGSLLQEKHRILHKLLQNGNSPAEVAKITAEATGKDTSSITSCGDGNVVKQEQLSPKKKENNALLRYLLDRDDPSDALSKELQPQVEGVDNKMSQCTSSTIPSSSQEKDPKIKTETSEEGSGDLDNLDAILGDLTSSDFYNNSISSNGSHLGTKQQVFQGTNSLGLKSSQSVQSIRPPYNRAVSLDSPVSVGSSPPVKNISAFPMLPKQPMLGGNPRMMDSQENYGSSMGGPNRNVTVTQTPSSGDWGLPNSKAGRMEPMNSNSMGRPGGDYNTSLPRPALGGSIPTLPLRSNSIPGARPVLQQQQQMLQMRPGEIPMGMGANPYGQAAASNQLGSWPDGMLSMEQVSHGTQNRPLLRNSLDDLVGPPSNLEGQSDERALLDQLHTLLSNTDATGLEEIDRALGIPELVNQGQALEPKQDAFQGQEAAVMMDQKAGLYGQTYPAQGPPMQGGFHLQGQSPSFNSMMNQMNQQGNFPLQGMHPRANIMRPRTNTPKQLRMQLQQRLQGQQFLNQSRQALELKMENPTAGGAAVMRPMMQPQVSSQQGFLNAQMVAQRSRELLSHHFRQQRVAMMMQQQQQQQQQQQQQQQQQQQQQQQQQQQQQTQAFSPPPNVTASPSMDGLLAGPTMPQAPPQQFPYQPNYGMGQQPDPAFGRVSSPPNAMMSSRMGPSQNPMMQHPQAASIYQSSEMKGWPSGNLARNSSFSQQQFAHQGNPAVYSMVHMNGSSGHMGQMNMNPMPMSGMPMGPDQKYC

[12] = molecular target: Luciferin 4-monooxygenase (Photinus pyralis, UniProt P08659); experiment: inhibition of purified Photinus pyralis luciferase – biochemical, luminescence, dose response (AID 1891)
Chain of Luciferin 4-monooxygenase (P08659 whole entry): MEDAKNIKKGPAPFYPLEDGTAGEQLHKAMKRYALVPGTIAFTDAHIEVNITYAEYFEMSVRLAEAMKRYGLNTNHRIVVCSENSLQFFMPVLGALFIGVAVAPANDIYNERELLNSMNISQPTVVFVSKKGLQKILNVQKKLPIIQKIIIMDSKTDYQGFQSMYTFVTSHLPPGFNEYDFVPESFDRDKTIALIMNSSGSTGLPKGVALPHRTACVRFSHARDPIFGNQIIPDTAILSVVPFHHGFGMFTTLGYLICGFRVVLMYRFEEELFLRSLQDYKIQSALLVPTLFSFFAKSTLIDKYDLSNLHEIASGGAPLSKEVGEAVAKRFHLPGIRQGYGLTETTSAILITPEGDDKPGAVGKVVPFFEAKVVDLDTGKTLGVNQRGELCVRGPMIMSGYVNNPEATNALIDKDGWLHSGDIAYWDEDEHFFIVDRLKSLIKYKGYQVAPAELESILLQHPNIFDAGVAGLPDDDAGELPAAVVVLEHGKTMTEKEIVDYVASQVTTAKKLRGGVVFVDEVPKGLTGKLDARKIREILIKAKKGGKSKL

[13] = Luminescence Cell-Based Dose Confirmation HTS to Identify Inhibitors of Platelet Dense Granule Release. [Related pubchem assays: 1663 (Primary HTS), 1678 (Summary of Project)]; type: functional
[14] = molecular target: Peroxisome proliferator-activated receptor gamma/Nuclear receptor coactivator 2 (Homo sapiens, UniProt P37231); experiment: TR-FRET dose response biochemical High Throughput Screening assay for agonists of the steroid receptor coactivator 2 (SRC-2) recruitment by the peroxisome proliferator-activated receptor gamma (PPAR gamma): non-selective agonists. [Related pubchem assays: 1297, 1032 ]; type: functional
Chain of Peroxisome proliferator-activated receptor gamma/Nuclear receptor coactivator 2 (P37231 whole entry): as the sequence (P37231 whole entry) above
Chain of Peroxisome proliferator-activated receptor gamma/Nuclear receptor coactivator 2 (Q15596 whole entry, further chain): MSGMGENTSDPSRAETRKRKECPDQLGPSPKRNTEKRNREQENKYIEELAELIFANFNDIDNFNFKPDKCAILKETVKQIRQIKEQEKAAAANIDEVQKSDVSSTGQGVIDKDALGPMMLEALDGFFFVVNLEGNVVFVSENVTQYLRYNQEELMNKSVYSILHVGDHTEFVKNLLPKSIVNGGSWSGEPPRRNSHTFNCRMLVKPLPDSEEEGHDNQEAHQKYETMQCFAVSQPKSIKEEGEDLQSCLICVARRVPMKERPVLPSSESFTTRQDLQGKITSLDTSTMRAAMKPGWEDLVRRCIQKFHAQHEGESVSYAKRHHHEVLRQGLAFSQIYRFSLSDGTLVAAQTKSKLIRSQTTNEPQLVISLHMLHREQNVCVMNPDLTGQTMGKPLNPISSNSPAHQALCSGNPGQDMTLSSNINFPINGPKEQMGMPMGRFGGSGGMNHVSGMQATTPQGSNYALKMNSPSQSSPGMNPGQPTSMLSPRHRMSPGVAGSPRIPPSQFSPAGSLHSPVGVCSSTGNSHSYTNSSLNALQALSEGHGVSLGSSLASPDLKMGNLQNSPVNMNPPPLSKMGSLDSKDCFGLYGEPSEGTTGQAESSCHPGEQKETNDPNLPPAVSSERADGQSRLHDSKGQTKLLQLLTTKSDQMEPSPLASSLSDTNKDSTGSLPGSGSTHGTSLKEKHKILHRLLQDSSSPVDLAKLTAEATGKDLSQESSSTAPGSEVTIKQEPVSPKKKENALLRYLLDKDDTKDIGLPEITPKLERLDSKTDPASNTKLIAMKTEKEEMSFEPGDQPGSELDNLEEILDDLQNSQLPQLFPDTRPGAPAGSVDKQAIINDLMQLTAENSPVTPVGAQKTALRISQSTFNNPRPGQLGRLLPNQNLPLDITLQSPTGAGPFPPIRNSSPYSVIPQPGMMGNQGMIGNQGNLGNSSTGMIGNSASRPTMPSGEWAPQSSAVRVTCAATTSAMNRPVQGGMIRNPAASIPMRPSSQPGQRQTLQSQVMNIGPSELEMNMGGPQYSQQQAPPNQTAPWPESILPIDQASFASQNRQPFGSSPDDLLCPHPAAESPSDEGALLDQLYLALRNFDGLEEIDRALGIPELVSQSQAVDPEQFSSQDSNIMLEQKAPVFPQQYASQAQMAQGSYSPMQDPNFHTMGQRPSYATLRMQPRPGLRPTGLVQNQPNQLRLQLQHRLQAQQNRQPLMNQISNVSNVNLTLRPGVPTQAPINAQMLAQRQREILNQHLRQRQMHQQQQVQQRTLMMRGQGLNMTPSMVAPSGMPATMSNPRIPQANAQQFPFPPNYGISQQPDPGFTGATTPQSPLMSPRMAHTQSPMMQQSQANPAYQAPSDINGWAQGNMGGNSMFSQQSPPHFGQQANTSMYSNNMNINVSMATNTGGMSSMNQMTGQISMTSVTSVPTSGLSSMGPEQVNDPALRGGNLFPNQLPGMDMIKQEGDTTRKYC

Beta-galactosidase = Beta-galactosidase (Escherichia coli, UniProt Q8VNN2); experiment: detection-enzyme interference by beta-gal modulators – biochemical, E. coli enzyme, set 3, artefact control for CCR6 antagonist project, dose response (AID 504712); type: functional
[15] = Fluorescence-based cell-based high throughput dose response assay for inhibitors of the interaction of nucleotide-binding oligomerization domain containing 2 (NOD2) and the receptor-interacting serine-threonine kinase 2 (RIPK2).; type: functional; settings: Homo sapiens
Beta Lactamase = Beta Lactamase (Pseudomonas aeruginosa, UniProt Q932Y6); experiment: BLA reporter interference, concentration series – BLA reporter cells, FRET fluorescence, artefact control for NOD2-RIPK2 interaction inhibitor project, dose response (AID 651552); type: functional, cell-based
[16] = molecular target: T7, Sentrin-specific protease 8 (Homo sapiens, UniProt Q96LD8); type: functional
T7 sequence (Q96LD8 whole entry): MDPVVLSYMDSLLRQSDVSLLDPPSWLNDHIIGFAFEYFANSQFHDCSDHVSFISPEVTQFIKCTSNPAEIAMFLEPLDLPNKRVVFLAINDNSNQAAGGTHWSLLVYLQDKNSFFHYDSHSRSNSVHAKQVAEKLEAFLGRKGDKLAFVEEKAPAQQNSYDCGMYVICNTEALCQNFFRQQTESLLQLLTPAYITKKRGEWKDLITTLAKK

[17] = molecular target: T7, Sentrin-specific protease 8; type: functional; remark: listed apart in the source

OC1=C2Sc3ccc(Cl)cc3N=C2CCC1
EC50 [1]: 18.4 µM (active) | EC50 [2]: 8.9 µM (inconclusive) | IC50 [3]: 13.7 µM (active) | IC50 [4]: 17.1 µM (active) | IC50 [5]: 42 µM (active)

CCOC(=O)/C(=C\c1ccc(Cl)cc1)c1nc(O)c2c(C)c(C)sc2n1
AC50 [6]: 0.981 µM (active) | EC50 [7]: > 260 µM (inconclusive) | CC50 (Vero): 16.5 µM (active) | IC50 [8]: 1.56 µM (active)

O=C1/C(=C/c2ccc([N+](=O)[O-])cc2)Oc2cc(O)ccc21
AC50 [9]: 53.7 µM (active) | EC50 [7]: 175 µM (active) | IC50 [3]: 38.4 µM (inactive) | IC50 [4]: 10.1 µM (active)

Cc1ccccc1N1C(=O)CC(Sc2nnc(-c3ccccc3)o2)C1=O (centres undefined)
EC50 [10]: > 26.5 µM (inactive) | EC50 [11]: > 79.4 µM (not active) | EC50 [12]: > 112 µM (not active) | EC50 [13]: > 112 µM (not active) | EC50 [14]: 26.2 µM (not active) | IC50 (Beta-galactosidase): > 66.6 µM (inactive) | EC50 [7]: 57.4 µM (active) | IC50 [15]: 4.12 µM (active) | IC50 (Beta Lactamase): 12.7 µM (inactive)

C[C@@H](OC(=O)c1nc[nH]c1C(=O)N1CCc2ccccc2C1)c1ccccc1
IC50 [16]: 80.9 µM (inactive) | IC50 [17]: 6.73 µM (active)
